Laboratory results published in US12577247B2 (BUGWORKS RESEARCH, INC., priority 2021, dated 2026).
Read-outs that look alike come from different tables or passages of the source.

Key:
A2A receptor [1] = target: T1, A2A receptor (Homo sapiens, UniProt P29274); assay: A2aR antagonism IC50, cAMP TR-FRET (Lance Ultra) in HEK-293 cells, NECA as agonist; format: cell-based; conditions: A2AR IC50 (nM) (@5 nM NECA), HEK-293 cells expressing A2A receptor; agonist NECA 5 nM (EC90); inhibition of cAMP;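 also: compounds tested from 10 µM down to 0.08 nM in buffer with Rolipram at room temperature, TR-FRET cAMP signal read 1 h after adding Eu-cAMP tracer and ULight anti-cAMP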
T1 construct: host or cells: HEK-293
Excerpt: (§1) Adenosine A2A receptors and Adenosine A2B receptors induce the production of cAMP when activated/stimulated by an agonist like adenosine or 5′-(N-Ethylcarboxamido) adenosine (NECA). A Time-Resolved Fluorescence Energy Transfer (TR-FRET) assay was used to show the inhibition of this cAMP production in HEK cells upon treatment with compounds of the Formula I of the present disclosure.
(§2) HEK-293 cells expressing A2A receptor (#ES-011-C) or A2B receptor (#ES 013-C) were obtained from PerkinElmer. Cells were maintained in DMEM medium supplemented with 10% FBS and 200 μg/mL of G418 at 37° C. and 5% CO2. The cells were cultured in antibiotic free medium for a period of 16-20 hours prior to the assay. All subsequent steps of the assay are performed at room temperature (22-24° C.). The cells were harvested at about 80% confluency by gentle flushing with PBS, recovered by centrifugation and resuspended in stimulation buffer at the concentration of 5.0×10^6 cells/mL.
(§3) The assays were conducted in a stimulation buffer containing 1×DMEM, 5 mM HEPES, 0.1% BSA stabilizer and 20-30 μM Rolipram. Serial dilutions of compounds were made in stimulation buffer to achieve a final concentration of high micromolar (10 μM to 0.08 nM) in the reaction volume of 10 μL. The total reaction volume was 10 μL (5 μL of cells, 2.5 μL of antagonist and 2.5 μL of agonist). The stimulation was ended, and the reaction completed by adding 5 μL of 4× Eu-cAMP tracer working solution and 5 μL of 4× ULight-anti-cAMP working solution. The TR-FRET signal was measured after 1-hour incubation using a Tecan M1000 reader.

A2A receptor [2] = target: T1, A2A receptor; assay: A2aR antagonism IC50, cAMP TR-FRET in HEK-293 cells, high concentration of adenosine (30 μM); format: cell-based; conditions: HEK-293 cells expressing A2A receptor; agonist adenosine 30 μM; 2% HSA; inhibition of cAMP; read-out: A2AR IC50 (nM) (@30 μM Adenosine);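 also: compounds added 10 min before adenosine, then 30 min stimulation at room temperature in buffer with 100 µM rolipram and 30 µM EHNA, signal read 1 h after detection reagents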
Procedure: A Time-Resolved Fluorescence Energy Transfer (TR-FRET) assay was used to show the inhibition of this cAMP production in HEK cells upon treatment with compounds of the Formula I of the present disclosure.
HEK-293 cells expressing A2A receptor (#ES-011-C) or A2B receptor (#ES 013-C) were obtained from PerkinElmer. Cells were maintained in DMEM medium supplemented with 10% FBS and 200 μg/mL of G418 at 37° C. and 5% CO2. The cells were cultured in antibiotic free medium for a period of 16-20 hours prior to the assay. All subsequent steps of the assay are performed at room temperature (22-24° C.). […] About 1500 cells per well were pre-incubated for 10 minutes with the compounds of the present invention before adding the agonist Adenosine at a high concentration (30 μM) for a total stimulation time of 30 minutes. […] The assays were conducted in a stimulation buffer containing 1×DMEM, 5 mM HEPES, 2% Human serum albumin (HSA), 100 μM Rolipram and 30 μM erythro-9-(2-hydroxy-3-nonyl) adenine (EHNA). Serial dilutions of compounds were made in stimulation buffer to achieve a final concentration of high micromolar in a reaction volume of 10 μL. The total reaction volume was 10 μL (5 μL of cells, 2.5 μL of antagonist and 2.5 μL of agonist). […] The stimulation was ended, and the reaction completed by adding 5 μL of 4× Eu-cAMP tracer working solution and 5 μL of 4× ULight-anti-cAMP working solution. The TR FRET signal was measured after 1-hour incubation using a Tecan M1000 or a PerkinElmer Victor Nivo plate reader.

[3] = system: human Peripheral blood mononuclear cells (PBMCs); assay: Cytokine restoration assay in human PBMCs (IL-2, TNF-α) under NECA; format: cell-based; conditions: PBMC, NECA 5 μM, anti CD3/28 Dynabeads, 48 hours
Excerpt: The ability of the invention compounds disclosed herein to restore the cytokines (IL-2 and TNF-α) release under adenosine agonist (NECA) environment evaluated using human Peripheral blood mononuclear cells (PBMCs). Peripheral blood was collected from healthy adult individuals in vacutainer tube. Peripheral blood mononuclear cells (PBMCs) were isolated via density gradient centrifugation, which uses Ficoll (Histopaque buffer) combined with short, low-speed centrifugation, to separate different cell populations. Diluted defibrinated blood was layered on a Ficoll and centrifuged at 1800 rpm for 20 minutes at 22° C. Differential migration of cells during centrifugation results in the formation of layers containing different cell types. The bottom layer contains erythrocytes. Remaining cells (i.e., lymphocytes, monocytes, and platelets) that are not dense enough to penetrate the Ficoll media layers (densities of 1.0770 g/ml), forms a buffy coat at the interface between the upper plasma layer and the Ficoll media layer. After carefully collected the buffy coat excess of platelets, Ficoll and plasma were removed by washing it with isotonic sterile phosphate buffered saline (PBS) and resulting cell pellet was resuspended in RPMI media with 5% FBS an P/S. The isolated PBMCs were allowed to be conditioned for an hour at 37° C. in a CO2 incubator. These cells were subsequently used for specific downstream assay. Isolated PBMC (3×10^5 cells/200 μl) were plated in 96 well microtiter plate in RPMI media with 5% FBS in presence of 100 units of penicillin plus 100 μg/ml streptomycin. NECA was added at a final concentration of 5 μM, control wells were maintained without NECA suppression (i.e., no NECA control). The assay plates were incubated at 37° C. for 4 hours in a CO2 incubator. Various concentrations of test compounds were added into respective wells in triplicates. Pre-washed anti CD3/28 Dynabeads (2.5 μL) was added for CD4 and CD8 + T-cell stimulation (to obtain a bead-to-cell ratio of 1:1). The assay plate was incubated at 37° C. in 5% CO2 and 20% ambient O2 maximum for 48 hours. At the end of 48 hours, the activated PBMC were harvested, and culture supernatants were used directly for further analysis. Forty-eight hours post treatment, 15 μL of cell-free supernatant was collected and assayed for secreted IL2 using the human Interleukin 2 (hIL2)—LANCE Ultra Detection Kit (Perkin Elmer). Similarly, level of soluble Tumor Necrosis Factor alpha (TNFα) was determined using human TNFα LANCE Ultra Detection Kit (Perkin Elmer). T-FRET signal was measured with Tecan spark multimode plate reader. Data was analyzed by graph-pad prism9. EC50 s of the compounds of Formula (I) in restoration of cytokine release under adenosine agonist from the human PBMCS are presented in Table 2

hERG potassium channel = target: T2, hERG potassium channel (Homo sapiens, UniProt Q12809); assay: hERG inhibition assay, Qpatch HTX automated electrophysiology; format: cell-based; conditions: CHO cell line stably expressing hERG; whole-cell patch clamp; room temperature
T2 construct: a Chinese Hamster Ovary cell line stably expressing the full-length hERG potassium channel; expressed in transfected cells; host or cells: Chinese Hamster Ovary cell line
Procedure: The representative compounds of formula I were tested for inhibition of the human ether a go-go related gene (hERG) K+ channel using Qpatch HTX automated electrophysiology. 6-Point concentration-response curves were generated using three-fold serial dilutions from a maximum final test concentration of […] and the results are presented in Table 3.
Compounds were solubilised to 100 mM in DMSO before dilution in HBPS to 100 μM. […] Electrophysiological recordings were made from a Chinese Hamster Ovary cell line stably expressing the full-length hERG potassium channel. Single cell ionic currents were measured in whole-cell patch clamp configuration at room temperature (21-23° C.) using the Qpatch HTX platform (Sophion). Intracellular solution contained (mM): 120 KF, 20 KCl, 10 EGTA, 10 HEPES and was buffered to pH 7.3. […] Cells were clamped at a holding potential of −80 mV. Cells were stepped to +20 mV for 2 s then −40 mV for 3 s before returning to the holding potential. This sweep was repeated 10 times at 10 s intervals. hERG currents were measured from the tail step and referenced to the holding current. Compounds were then incubated for 2 minutes prior to a second measurement of ion channel current using an identical pulse train.

A2B receptor [4] = target: T3, A2B receptor (Homo sapiens, UniProt P29275); assay: A2bR antagonism IC50, cAMP TR-FRET (Lance Ultra) in HEK-293 cells, NECA as agonist; format: cell-based; design: host or cells: HEK-293; conditions: HEK-293 cells expressing A2B receptor; agonist NECA 30 nM (EC90); inhibition of cAMP
T3 sequence (P29275 1-332): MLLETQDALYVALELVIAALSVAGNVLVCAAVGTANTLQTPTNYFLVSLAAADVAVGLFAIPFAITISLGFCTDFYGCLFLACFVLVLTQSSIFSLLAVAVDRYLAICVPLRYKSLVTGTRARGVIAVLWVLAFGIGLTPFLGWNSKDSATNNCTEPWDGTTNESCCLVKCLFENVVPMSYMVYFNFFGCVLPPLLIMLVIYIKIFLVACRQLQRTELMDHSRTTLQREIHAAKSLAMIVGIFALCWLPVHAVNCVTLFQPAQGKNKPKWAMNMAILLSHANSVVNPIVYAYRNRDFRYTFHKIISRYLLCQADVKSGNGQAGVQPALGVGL
Excerpt: as §1, §2, §3

A2B receptor [5] = target: T3, A2B receptor; assay: A2bR antagonism IC50, cAMP TR-FRET in HEK-293 cells, high concentration of adenosine (30 μM); conditions: A2BR IC50 (nM) (@30 μM Adenosine), HEK-293 cells expressing A2B receptor; agonist adenosine 30 μM; 2% HSA; inhibition of cAMP;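 also: compounds preincubated 10 min with cells, then adenosine stimulation 30 min at room temperature in buffer with Rolipram 100 µM and EHNA 30 µM, TR-FRET read after 1 h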
[6] = read-out: IL-2 restoration EC50
[7] = read-out: TNF-α restoration EC50

T1 sequence (P29274 whole entry): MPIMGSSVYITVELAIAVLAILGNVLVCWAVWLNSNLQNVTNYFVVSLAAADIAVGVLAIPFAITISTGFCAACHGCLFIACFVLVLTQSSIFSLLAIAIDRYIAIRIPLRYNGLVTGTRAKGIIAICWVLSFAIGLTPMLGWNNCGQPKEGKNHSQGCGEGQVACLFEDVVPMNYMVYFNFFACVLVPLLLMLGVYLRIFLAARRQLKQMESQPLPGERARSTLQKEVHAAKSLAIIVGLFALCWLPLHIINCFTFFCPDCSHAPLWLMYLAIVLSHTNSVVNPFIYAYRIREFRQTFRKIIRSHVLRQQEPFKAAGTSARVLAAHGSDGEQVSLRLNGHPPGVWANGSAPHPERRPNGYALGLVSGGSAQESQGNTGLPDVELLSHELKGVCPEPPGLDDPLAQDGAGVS
T2 sequence (Q12809 whole entry): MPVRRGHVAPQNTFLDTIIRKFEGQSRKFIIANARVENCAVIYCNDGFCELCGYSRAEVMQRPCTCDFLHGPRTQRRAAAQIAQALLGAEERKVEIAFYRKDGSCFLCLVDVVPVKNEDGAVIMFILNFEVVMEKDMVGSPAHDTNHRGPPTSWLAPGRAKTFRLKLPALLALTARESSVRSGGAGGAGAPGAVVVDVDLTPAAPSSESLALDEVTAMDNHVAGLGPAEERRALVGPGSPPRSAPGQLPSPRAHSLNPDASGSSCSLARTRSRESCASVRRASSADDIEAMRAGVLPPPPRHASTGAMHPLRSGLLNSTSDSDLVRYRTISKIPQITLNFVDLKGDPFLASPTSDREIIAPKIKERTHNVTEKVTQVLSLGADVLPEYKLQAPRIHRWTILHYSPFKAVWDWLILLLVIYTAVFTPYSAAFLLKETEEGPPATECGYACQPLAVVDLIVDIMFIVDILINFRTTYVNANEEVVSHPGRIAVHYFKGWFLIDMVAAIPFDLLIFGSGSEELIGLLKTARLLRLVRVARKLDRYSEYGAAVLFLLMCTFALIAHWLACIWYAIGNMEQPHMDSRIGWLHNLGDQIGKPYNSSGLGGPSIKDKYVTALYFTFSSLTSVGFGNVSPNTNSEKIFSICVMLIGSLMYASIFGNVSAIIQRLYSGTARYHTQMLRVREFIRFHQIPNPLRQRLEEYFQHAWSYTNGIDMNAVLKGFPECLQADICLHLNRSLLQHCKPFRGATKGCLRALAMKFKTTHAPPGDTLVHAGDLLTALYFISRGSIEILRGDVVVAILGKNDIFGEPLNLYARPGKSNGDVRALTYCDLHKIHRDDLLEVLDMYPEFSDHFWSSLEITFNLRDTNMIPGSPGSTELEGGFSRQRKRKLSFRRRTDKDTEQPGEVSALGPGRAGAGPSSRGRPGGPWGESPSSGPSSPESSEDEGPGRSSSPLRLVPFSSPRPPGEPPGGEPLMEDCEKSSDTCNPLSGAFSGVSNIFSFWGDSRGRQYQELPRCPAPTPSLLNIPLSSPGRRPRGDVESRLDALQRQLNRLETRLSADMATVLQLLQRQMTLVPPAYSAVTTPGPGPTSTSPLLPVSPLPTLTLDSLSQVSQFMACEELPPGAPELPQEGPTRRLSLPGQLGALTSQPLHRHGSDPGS

Structure (SMILES)	IC50 (A2A receptor [1]) [nM]	IC50 (A2A receptor [2]) [nM]	IC50 (A2B receptor [4]) [nM]	IC50 (A2B receptor [5]) [nM]	EC50 [3, 6] [nM]	EC50 [3, 7] [nM]	IC50 (hERG potassium channel) [µM]
CCc1c(C)nn2c(N)c(C#N)c(NCCc3ccn(C4CCC4CO)n3)nc12 (single isomer, unassigned; (-)) [Example 79, (−)-7-amino-3-ethyl-5-((2-(1-(2-(hydroxymethyl)cyclobutyl)-1H-pyrazol-3-yl)ethyl)amino)-2-methylpyrazolo[1,5-a]pyrimidine-6-carbonitrile]	< 0.1	88	2	586	2.2	1.4	> 100
Cc1nn2c(N)c(C#N)c(NCCc3cccc(C4(CO)CC4)n3)nc2c1C [Example 49, 7-amino-5-((2-(6-(1-(hydroxymethyl)cyclopropyl)pyridin-2-yl)ethyl)amino)-2,3-dimethylpyrazolo[1,5-a]pyrimidine-6-carbonitrile]	0.3	635	6	4260			
CCc1c(C)nn2c(N)c(C#N)c(NCCc3cccc(C4(CO)CC4)n3)nc12 [Example 50, 7-amino-3-ethyl-5-((2-(6-(1-(hydroxymethyl)cyclopropyl)pyridin-2-yl)ethyl)amino)-2-methylpyrazolo[1,5-a] pyrimidine-6-carbonitrile]	0.2	2160	3.6	2370			
Cc1nn2c(N)c(C#N)c(NCCc3cccc(C4CC4CO)n3)nc2c1C (centres unmarked) [Example 51, 7-amino-5-((2-(6-(2-(hydroxymethyl)cyclopropyl)pyridin-2-yl)ethyl)amino)-2,3-dimethylpyrazolo[1,5-a]pyrimidine-6-carbonitrile]	0.17	348	2.1	1290			
Cc1nn2c(N)c(C#N)c(NCCc3ccn(C4(CO)CC4)n3)nc2c1C [Example 55, 7-amino-5-((2-(1-(1-(hydroxymethyl)cyclopropyl)-1H-pyrazol-3-yl)ethyl)amino)-2,3-dimethylpyrazolo[1,5-a]pyrimidine-6-carbonitrile]	0.74	250	8.6	3790			
CCc1c(C(F)F)nn2c(N)c(C#N)c(NCCc3ccn(C4(CO)CC4)n3)nc12 [Example 58, 7-amino-2-(difluoromethyl)-3-ethyl-5-((2-(1-(1-(hydroxymethyl)cyclopropyl)-1H-pyrazol-3-yl)ethyl)amino) pyrazolo[1,5-a]pyrimidine-6-carbonitrile]	0.22	756	4.7	12200			
Cc1nn2c(N)c(C#N)c(NCCc3cc(C)n(C4(CO)CC4)n3)nc2c1C [Example 86, 7-amino-5-((2-(1-(1-(hydroxymethyl)cyclopropyl)-5-methyl-1H-pyrazol-3-yl)ethyl)amino)-2,3-dimethylpyrazolo[1,5-a]pyrimidine-6-carbonitrile]	0.2	43	19	2550			

Second part, led by results:

IC50 (A2A receptor [1]) [nM]	IC50 (A2A receptor [2]) [nM]	IC50 (A2B receptor [4]) [nM]	IC50 (A2B receptor [5]) [nM]	Structure (SMILES)	EC50 [3, 6] [nM]	EC50 [3, 7] [nM]	IC50 (hERG potassium channel) [µM]
1.2	112	53	1060	Cc1nn2c(N)c(C#N)c(NCCc3ccn(C4CCC4CN)n3)nc2c1Cl (centres unmarked) [Example 95, 7-amino-5-((2-(1-(2-(aminomethyl)cyclobutyl)-1H-pyrazol-3-yl)ethyl)amino)-3-chloro-2-methylpyrazolo[1,5-a]pyrimidine-6-carbonitrile]			
0.3	117	9	829	CCc1c(C)nn2c(N)c(C#N)c(NCCc3ccn(C4CCCC4CO)n3)nc12 (centres unmarked) [Example 115, 7-amino-3-ethyl-5-((2-(1-(2-(hydroxymethyl)cyclopentyl)-1H-pyrazol-3-yl)ethyl)amino)-2-methylpyrazolo[1,5-a]pyrimidine-6-carbonitrile]			
	181		429	CCc1c(C)nn2c(N)c(C#N)c(NCCc3cccc(CCCO)n3)nc12 [Example 155, 7-amino-3-ethyl-5-((2-(6-(3-hydroxypropyl)pyridin-2-yl)ethyl)amino)-2-methylpyrazolo[1,5-a]pyrimidine-6-carbonitrile]	3.6	3.2	> 100
